The IC50 is the midpoint of a concentration-inhibition curve. Read a high IC50 as weaker potency in that assay. Broadly, the EC50 is the concentration giving half of the maximal effect. Low values mean higher potency in that assay, high ones lower potency in that assay.

Each structure is given as a SMILES string. Some results are limits rather than exact numbers.

Our source for the IC50 and EC50 values is ChEMBL document CHEMBL1136751 (J Med Chem, 2003).

In assay [1] the target is T1, Peroxisome proliferator-activated receptor alpha (Homo sapiens, UniProt Q07869).
T1 sequence (Q07869 whole entry): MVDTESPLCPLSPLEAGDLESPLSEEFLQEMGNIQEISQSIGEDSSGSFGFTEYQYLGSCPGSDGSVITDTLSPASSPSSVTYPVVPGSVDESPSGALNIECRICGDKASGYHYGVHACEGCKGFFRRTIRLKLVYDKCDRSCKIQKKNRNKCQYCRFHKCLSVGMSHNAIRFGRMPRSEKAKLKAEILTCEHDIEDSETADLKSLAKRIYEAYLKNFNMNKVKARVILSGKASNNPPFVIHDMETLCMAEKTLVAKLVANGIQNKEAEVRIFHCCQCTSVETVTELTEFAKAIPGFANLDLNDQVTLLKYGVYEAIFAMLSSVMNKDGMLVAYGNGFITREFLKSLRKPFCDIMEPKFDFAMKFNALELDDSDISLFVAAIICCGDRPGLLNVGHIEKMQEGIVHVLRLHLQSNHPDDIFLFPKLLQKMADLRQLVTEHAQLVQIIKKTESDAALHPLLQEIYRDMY
The experiment in a line: Receptor binding affinity to human Peroxisome proliferator activated receptor alpha against [3H]-NNC 0061-4655 radioligand.

Assay [2] deals with T2, Peroxisome proliferator-activated receptor gamma (Homo sapiens, UniProt P37231).
T2 sequence (P37231 whole entry): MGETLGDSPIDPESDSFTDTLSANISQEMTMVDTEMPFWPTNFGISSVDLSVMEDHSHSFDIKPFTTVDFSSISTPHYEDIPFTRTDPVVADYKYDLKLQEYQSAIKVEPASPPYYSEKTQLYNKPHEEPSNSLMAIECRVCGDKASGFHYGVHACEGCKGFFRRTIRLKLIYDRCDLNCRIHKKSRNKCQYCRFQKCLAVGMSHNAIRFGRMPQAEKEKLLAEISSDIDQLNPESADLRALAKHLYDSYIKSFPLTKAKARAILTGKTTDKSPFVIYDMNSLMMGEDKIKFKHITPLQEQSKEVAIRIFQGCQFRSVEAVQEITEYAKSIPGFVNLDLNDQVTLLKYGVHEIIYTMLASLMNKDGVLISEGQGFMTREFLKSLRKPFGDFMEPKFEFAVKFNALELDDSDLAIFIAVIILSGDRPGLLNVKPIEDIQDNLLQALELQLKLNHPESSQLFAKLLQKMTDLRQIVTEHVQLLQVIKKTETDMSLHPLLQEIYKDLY
Description: Receptor binding affinity to human Peroxisome proliferator activated receptor gamma against [3H]ragalitazar radioligand

Assay [3] addresses T2, Peroxisome proliferator-activated receptor gamma. This is another data set of the same source.
Description: Agonistic activity for human Peroxisome proliferator activated receptor gamma
Assay [4] concerns the target T1, Peroxisome proliferator-activated receptor alpha. The experiment in a line: Agonistic activity for Peroxisome proliferator activated receptor alpha. It counts as functional.

On to `CCO[C@H](Cc1ccc(OCCN2c3ccccc3Oc3ccccc32)cc1)C(=O)O`, for which the IC50 in assay [1] and in assay [2] was over 10000 nM in each case.
`CCO[C@@H](Cc1ccc(OCCN2c3ccccc3Oc3ccccc32)cc1)C(=O)O` [RAGAGLITAZAR] displayed an IC50 in assay [1] of 980 nM. Further, in assay [3], the concentration for a half-maximal effect (EC50) amounted to 600 nM.
Turning to `CCO[C@@H](Cc1ccc(OCCc2ccc(OS(C)(=O)=O)cc2)cc1)C(=O)O` [TESAGLITAZAR], the values for the EC50 in assay [4] and in assay [3] were 1200 nM and 1300 nM, respectively. Also, the concentration for half-maximal inhibition (IC50) in assay [1] was 3800 nM; in assay [2], 350 nM.
